The source of these data is patent US9346829B2, “5-HT3 receptor antagonists” (Takeda Phamaceutical Company Limited, priority 2012, dated 2016).

For the assay, the target named is 5-HT3a receptor (Homo sapiens (Human), UniProt P46098). Briefly: Inhibition of Ca flux activity of 5-HT3 in vitro assay. The settings on record: approximate IC50; calcium flux, 5-HT3a expressed in HEK-293T cells, 5HT 216 nM; read-out: IC50. In kind it is cell-based. As for the experimental part:
The 5-HT3 antagonist activity of the compounds of the invention was determined by measuring the ability of the compounds to inhibit the calcium flux activity of […] receptor expressed in HEK-293T cells. HEK-293T cells were transfected with the 5-HT3a expression construct using Xtreme Gene 9 (Roche) in 150 mm tissue culture treated plates and incubated for 24 hours at 37° C. Cells were then split and plated at a density of 60K cells/well in poly-lysine coated, black 96-well plates with clear bottoms (BD BioSciences) and incubated overnight at 37° C. Growth media was removed and cells loaded with 200 uL calcium indicator dye in HBSS containing 20 mM HEPES (Calcium 5 Assay kit, Molecular Devices) and incubated at 37° C. for 1 hour. While cells were incubating, the 10× antagonist and agonist/antagonist addition plates were made. For 10× antagonist plate: half log serial dilutions (final concentrations range from 10^−7 through 10^−10 with the bottom well a negative, no ligand control) were made from test compounds in DMSO at a 1000× concentration and then diluted to 10× in HBSS/20 mM HEPES. For addition plate: 5HT was diluted to 100× in HBSS/20 mM HEPES (final concentration in the assay—216 nM) and 15 uL was added to each well of the addition plate, 15 uL of 10× compound was also added to the addition plate, and finally 120 uL of HBSS/20 mM HEPES (for a total of 150 uL). Cells were then removed from the incubator and equilibrated to room temperature for 10 minutes, then 22.5 uL of 10× test compounds were added in triplicate to the plates and incubated at room temperature for 10 minutes (Tropisetron was used as a positive control in every assay). Test plate and addition plate were loaded into the FlexStation III (Molecular Devices), and using the fluidics, 22.5 uL compound additions were made (at t=˜17 seconds), and fluorescence was measured for 90 seconds, reading every 2.2 seconds. Data sets were analyzed as max minus min using Software Max Pro (Molecular Devices). IC50 curves were generated using non-linear regression in GraphPad Prism.
(In general: A change in cytosolic calcium serves as a functional read-out for many receptors and channels.)

Where a name gives a salt, the structure may show the parent alone.

Chain of 5-HT3a receptor (P46098 24-478): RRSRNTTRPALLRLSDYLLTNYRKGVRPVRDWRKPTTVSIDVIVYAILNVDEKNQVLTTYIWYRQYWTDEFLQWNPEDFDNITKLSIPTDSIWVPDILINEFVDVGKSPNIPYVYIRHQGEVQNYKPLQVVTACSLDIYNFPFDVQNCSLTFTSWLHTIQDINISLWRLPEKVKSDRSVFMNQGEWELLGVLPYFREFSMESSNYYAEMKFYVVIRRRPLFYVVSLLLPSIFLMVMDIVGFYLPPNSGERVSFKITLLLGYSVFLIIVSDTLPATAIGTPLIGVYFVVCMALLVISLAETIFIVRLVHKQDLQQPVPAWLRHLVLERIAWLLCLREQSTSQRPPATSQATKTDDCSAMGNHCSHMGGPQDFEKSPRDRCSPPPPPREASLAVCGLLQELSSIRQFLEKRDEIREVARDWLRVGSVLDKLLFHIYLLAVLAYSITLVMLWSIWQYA

As usually defined, the IC50 is the concentration that gives 50% inhibition. As for `Cc1ncccc1-n1cc(C(=O)N[C@H]2C[C@H]3COC[C@@H](C2)N3C)c2ccccc21` [Compound 20, N-((1R,5S,7S)-9-methyl-3-oxa-9-azabicyclo[3.3.1]nonan-7-yl)-1-(2-methylpyridin-3-yl)-1H-indole-3-carboxamide, 2,2,2-trifluoroacetic acid salt], the half-inhibitory concentration (IC50) came out at 1.5 nM.

In the case of `Cn1cc(-n2cc(C(=O)N[C@H]3C[C@H]4COC[C@@H](C3)N4)c3ccccc32)cn1` [Compound 28, N-((1R,5S,7S)-3-oxa-9-azabicyclo[3.3.1]nonan-7-yl)-1-(1-methyl-1H-pyrazol-4-yl)-1H-indole-3-carboxamide], the half-inhibitory concentration (IC50) is 2.04 nM.

For `CN1[C@@H]2COC[C@H]1C[C@@H](NC(=O)c1cn(-c3cccnc3)c3ncccc13)C2` [Compound 11, N-((1R,5S,7S)-9-methyl-3-oxa-9-azabicyclo[3.3.l]nonan-7-yl)-1-(pyridin-3-yl)-1H-pyrrolo[2,3-b]pyridine-3-carboxamide, 2,2,2-trifluoroacetic acid salt], the IC50 turned out to be 0.6 nM.

Regarding `CN1[C@@H]2COC[C@H]1C[C@@H](NC(=O)c1cn(-c3ccccn3)c3ncccc13)C2` [Compound 10, N-(1R,5S,7S)-9-methyl-3-oxa-9-azabicyclo[3.3.1]nonan-7-yl)-1-(pyridin-2-yl)-1H-pyrrolo[2,3-b]pyridine-3-carboxamide, 2,2,2-trifluoroacetic acid salt], the half-inhibitory concentration (IC50) was determined as 0.65 nM.

As to `N#Cc1cc(-n2cc(C(=O)O[C@H]3C[C@H]4COC[C@@H](C3)N4)c3ccccc32)ccn1` [Compound 19, (1R,5S,7S)-3-oxa-9-azabicyclo[3.3.1]nonan-7-yl 1-(2-cyanopyridin-4-yl)-1H-indole-3-carboxylate, 2,2,2-trifluoroacetic acid salt], the IC50 was 3.68 nM.

As to `CN1[C@@H]2COC[C@H]1C[C@@H](NC(=O)c1cn(-c3ccccn3)c3ncc(F)cc13)C2` [Compound 12, 5-fluoro-N-((1R,5S,7S)-9-methyl-3-oxa-9-azabicyclo [3.3.1]nonan-7-yl)-1-(pyridin-2-yl)-1H-pyrrolo[2,3-b]pyridine-3-carboxamide, 2,2,2-trifluoroacetic acid salt], the IC50 was determined as 0.882 nM.

On to `O=C(O[C@H]1C[C@H]2COC[C@@H](C1)N2)c1cn(-c2cccnc2)c2ccccc12` [Compound 5, (1R,5S,7S)-3-oxa-9-azabicyclo [3.3.1]nonan-7-yl 1-(pyridin-3-yl)-1H-indole-3-carboxylate, 2,2,2-trifluoroacetate], for which the IC50 came to 0.62 nM.

On to `CN1[C@@H]2COC[C@H]1CC(NC(=O)c1cn(-c3ccncc3)c3ccccc13)C2` (stereo partly drawn) [Compound 4, N-((1R,5S,7S)-9-methyl-3-oxa-9-azabicyclo[3.3.1]nonan-7-yl)-1-(pyridin-4-yl)-1H-indole-3-carboxamide, 2,2,2-trifluoroacetate], for which the IC50 stood at 0.69 nM.

With `Cn1cc(-n2cc(C(=O)O[C@H]3C[C@H]4COC[C@@H](C3)N4)c3ccccc32)cn1` [Compound 9, (1R,5S,7S)-3-oxa-9-azabicyclo [3.3.1]nonan-7-yl 1-(1-methyl-1H-pyrazol-4-yl)-1H-indol-3-carboxylate, 2,2,2-trifluoroacetic acid salt], the IC50 turned out to be 0.68 nM.

For `CN1[C@@H]2COC[C@H]1C[C@@H](OC(=O)c1cn(-c3cnn(CCF)c3)c3ccccc13)C2` [Compound 18, (1R,5S,7S)-9-methyl-3-oxa-9-azabicyclo[3.3.1]nonan-7-yl 1-(1-(2-fluoroethyl)-1H-pyrazol-4-yl)-1H-indole-3-carboxylate, 2,2,2-trifluoroacetic acid salt], the IC50 stood at 2.01 nM.

Regarding `CCN1[C@@H]2COC[C@H]1C[C@@H](NC(=O)c1cn(-c3cnn(C)c3)c3ccccc13)C2` [Compound 31, N-((1R,5S,7S)-9-ethyl-3-oxa-9-azabicyclo[3.3.1]nonan-7-yl)-1-(1-methyl-1H-pyrazol-4-yl)-1H-indole-3-carboxamide], the concentration for half-maximal inhibition (IC50) is above 1000 nM.

With `CN1[C@@H]2COC[C@H]1C[C@@H](NC(=O)c1cn(-c3cccnc3)c3ccccc13)C2` [Compound 2, N-((1R,5S,7S)-9-methyl-3-oxa-9-azabicyclo[3.3.1]nonan-7-yl)-1-(pyridin-3-yl)-1H-indole-3-carboxamide, 2,2,2-trifluoroacetate], the IC50 was 0.51 nM.

As to `O=C(N[C@H]1C[C@H]2COC[C@@H](C1)N2)c1cn(-c2cn[nH]c2)c2ccccc12` [Compound 30, N-((1R,5S,7S)-3-oxa-9-azabicyclo[3.3.1]nonan-7-yl)-1-(1H-pyrazol-4-yl)-1H-indole-3-carboxamide], the IC50 amounted to 0.745 nM.

As for `CN1[C@@H]2COC[C@H]1C[C@@H](NC(=O)c1cn(-c3ccccn3)c3ccccc13)C2` [Compound 8, N-((1R,5S,7S)-9-methyl-d3-3-oxa-9-azabicyclo[3.3.1]nonan-7-yl)-1-(pyridin-2-yl)-1H-indole-3-carboxamide, 2,2,2-trifluoroacetate], the IC50 turned out to be 0.81 nM.

Regarding `CN1[C@@H]2COC[C@H]1C[C@@H](NC(=O)c1cn(-c3cccnc3)c3ncc(F)cc13)C2` [Compound 13, 5-fluoro-N-((1R,5S,7S)-9-methyl-3-oxa-9-azabicyclo [3.3.1]nonan-7-yl)-1-(pyridin-3-yl)-1H-pyrrolo[2,3-b]pyridine-3-carboxamide, 2,2,2-trifluoroacetic acid salt], the IC50 is 0.72 nM.

Take `CN1[C@@H]2COC[C@H]1CC(NC(=O)c1cn(-c3cccnc3)c3ccccc13)C2` (stereo partly drawn) [Compound 6, N-((1R,5S,7S)-9-methyl-d3-3-oxa-9-azabicyclo[3.3.1]nonan-7-yl)-1-(pyridin-3-yl)-1H-indole-3-carboxamide, 2,2,2-trifluoroacetate]: the half-inhibitory concentration (IC50) was 1.1 nM.

For the molecule `CN1[C@@H]2COC[C@H]1C[C@@H](NC(=O)c1cn(-c3ccn(C)n3)c3ccccc13)C2` [Compound 17, 1-(1-methyl-1H-pyrazol-3-yl)-N-((1R,5S,7S)-9-methyl-3-oxa-9-azabicyclo [3.3.1]nonan-7-yl)-1H-indole-3-carboxamide, 2,2,2-trifluoroacetic acid salt], the IC50 amounted to 0.75 nM.

Consider `CN1[C@@H]2COC[C@H]1C[C@@H](NC(=O)c1cn(-c3ccccn3)c3ccccc13)C2` [Compound 3, N-((1R,5S,7S)-9-methyl-3-oxa-9-azabicyclo[3.3.1]nonan-7-yl)-1-(pyridin-2-yl)-1H-indole-3-carboxamide, 2,2,2-trifluoroacetate], for which the concentration for half-maximal inhibition (IC50) came to 0.96 nM.

Regarding `CN1[C@@H]2COC[C@H]1C[C@@H](NC(=O)c1nn(-c3ccccn3)c3ccccc13)C2` [Compound 14, N-((1R,5S,7S)-9-methyl-3-oxa-9-azabicyclo[3.3.1]nonan-7-yl)-1-(pyridin-2-yl)-1H-indazole-3-carboxamide, 2,2,2-trifluoroacetic acid salt], the IC50 stood at 1.34 nM.

As to `CN1[C@@H]2COC[C@H]1C[C@@H](NC(=O)c1cn(-c3ccnn3C)c3ccccc13)C2` [Compound 23, 1-(1-methyl-1H-pyrazol-5-yl)-N-((1R,5S,7S)-9-methyl-3-oxa-9-azabicyclo[3.3.1]nonan-7-yl)-1H-indole-3-carboxamide, 2,2,2-trifluoroacetic acid salt], the IC50 was determined as 1.01 nM.

In the case of `CN1[C@@H]2COC[C@H]1C[C@@H](OC(=O)c1cn(-c3ccccn3)c3ccccc13)C2` [Compound 7, (1R,5S,7S)-9-methyl-d3-3-oxa-9-azabicyclo[3.3.1]nonan-7-yl 1-(pyridin-2-yl)-1H-indole-3-carboxylate, 2,2,2-trifluoroacetate], the IC50 came out at 2.86 nM.

On to `Cn1ccc(-n2cc(C(=O)O[C@H]3C[C@H]4COC[C@@H](C3)N4)c3ccccc32)n1` [Compound 16, (1R,5S,7S)-3-oxa-9-azabicyclo[3.3.1]nonan-7-yl 1-(1-methyl-1H-pyrazol-3-yl)-1H-indole-3-carboxylate, 2,2,2-trifluoroacetic acid salt], for which the half-inhibitory concentration (IC50) was 2.5 nM.

`CN1[C@@H]2COC[C@H]1C[C@@H](NC(=O)c1cn(-c3cnn(C(F)F)c3)c3ccccc13)C2` [Compound 25, 1-(1-(difluoromethyl)-1H-pyrazol-4-yl)-N-((1R,5S,7S)-9-methyl-3-oxa-9-azabicyclo [3.3.1]nonan-7-yl)-1H-indole-3-carboxamide]: the IC50 turned out to be 1.39 nM.

`Cc1ccncc1-n1cc(C(=O)N[C@H]2C[C@H]3COC[C@@H](C2)N3C)c2ccccc21` [Compound 21, N-((1R,5S,7S)-9-methyl-3-oxa-9-azabicyclo[3.3.1]nonan-7-yl)-1-(4-methylpyridin-3-yl)-1H-indole-3-carboxamide, 2,2,2-trifluoroacetic acid salt]: the concentration for half-maximal inhibition (IC50) was 1.1 nM.
